Calls of active or inactive are those of the source. The calls are words filed in the database; no cut-off is given here.
How the values were obtained:
[1] = Neurotoxicity in mouse HT-22 cells assessed as reduction in cell viability at 50 uM; format: toxicity, cell-based; details: ht-22, 50 µM
[2] = target: T1, Cholinesterase (Homo sapiens, UniProt P06276); assay: Inhibition of human BChE using butyrylthiocholineiodide as substrate preincubated for 5 mins followed by substrate addition and measured immediately by Ellmans method
T1 sequence (P06276 whole entry): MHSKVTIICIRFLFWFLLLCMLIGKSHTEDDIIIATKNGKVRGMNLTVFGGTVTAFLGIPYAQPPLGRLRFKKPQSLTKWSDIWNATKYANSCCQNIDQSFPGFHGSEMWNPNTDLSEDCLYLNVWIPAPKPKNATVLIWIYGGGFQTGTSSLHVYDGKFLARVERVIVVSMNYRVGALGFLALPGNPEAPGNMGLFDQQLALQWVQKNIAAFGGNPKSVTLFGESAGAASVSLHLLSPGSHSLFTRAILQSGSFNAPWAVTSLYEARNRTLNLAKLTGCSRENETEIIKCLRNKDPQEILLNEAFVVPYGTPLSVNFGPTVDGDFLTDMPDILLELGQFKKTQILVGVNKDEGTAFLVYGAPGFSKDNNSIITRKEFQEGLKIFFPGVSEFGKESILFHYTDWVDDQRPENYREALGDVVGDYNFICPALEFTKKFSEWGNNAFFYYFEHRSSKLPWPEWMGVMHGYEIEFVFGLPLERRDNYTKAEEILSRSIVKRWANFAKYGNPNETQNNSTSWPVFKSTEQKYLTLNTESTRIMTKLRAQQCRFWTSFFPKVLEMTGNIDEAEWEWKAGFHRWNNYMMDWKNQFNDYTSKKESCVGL

[3] = tested on: Mus musculus; assay: Antialzheimer activity in APP/PS1 transgenic AD mouse model assessed as increase in ACh level administered intravenously once every 2 days for 10 times and measured on day 30 by ELISA; format: functional, organism-based; details: route iv, time 30.0 day
[4] = target: T1, Cholinesterase; assay: Stability of compound assessed as BChE(unknown origin)-mediated compound hydrolysis at 10 uM by fluorescence based analysis; format: ADME
[5] = tested on: SH-SY5Y; assay: Neuroprotective activity against amyloid-beta (1 to 42)-induced human SH-SY5Y cells assessed as increase in ACh level in culture medium at 10 to 20 uM incubated for 24 hrs by ELISA; format: functional, cell-based; details: dose 10-20 µM
[6] = target: T1, Cholinesterase; assay: Binding affinity to BChE (unknown origin) in PBS assessed as red-shift in maximum absorption to 680 nm by UV/vis absorption analysis
[7] = target: T2, Acetylcholinesterase (Homo sapiens, UniProt P22303); assay: Binding affinity to AChE (unknown origin) by fluorescence analysis
T2 sequence (P22303 whole entry): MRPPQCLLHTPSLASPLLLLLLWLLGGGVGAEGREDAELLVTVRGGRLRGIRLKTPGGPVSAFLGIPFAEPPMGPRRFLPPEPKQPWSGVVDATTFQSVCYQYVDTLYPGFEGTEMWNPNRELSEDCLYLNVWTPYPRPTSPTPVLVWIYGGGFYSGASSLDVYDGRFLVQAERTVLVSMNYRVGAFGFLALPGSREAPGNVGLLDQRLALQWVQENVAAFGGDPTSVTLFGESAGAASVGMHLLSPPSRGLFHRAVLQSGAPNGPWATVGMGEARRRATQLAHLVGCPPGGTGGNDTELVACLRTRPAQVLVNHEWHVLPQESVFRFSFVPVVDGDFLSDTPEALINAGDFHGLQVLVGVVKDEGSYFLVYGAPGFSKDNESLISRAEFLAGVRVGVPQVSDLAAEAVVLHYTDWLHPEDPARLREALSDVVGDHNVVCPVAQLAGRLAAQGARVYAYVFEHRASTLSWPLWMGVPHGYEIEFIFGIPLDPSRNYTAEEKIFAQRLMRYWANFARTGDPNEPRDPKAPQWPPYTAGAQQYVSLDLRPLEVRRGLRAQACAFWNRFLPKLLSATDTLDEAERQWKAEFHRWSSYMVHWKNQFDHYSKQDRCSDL

[8] = Stability of compound in male ICR mouse brain at 100 uM, iv measured within 5 mins by fluorescence microplate reader; format: ADME, organism-based
[9] = tested on: Mus musculus; assay: Antialzheimer activity in APP/PS1 transgenic AD mouse model assessed as decrease in amyloid beta (1 to 42) level administered intravenously once every 2 days for 10 times and measured on day 30 by ELISA; format: functional, organism-based; details: route iv, time 30.0 day
[10] = tested on: PC-12; assay: Binding affinity to BChE in rat PC-12 cells assessed as increase in fluorescence intensity incubated for 1 hrs by fluorescence based confocal laser scanning microscopic analysis; format: cell-based; details: dose 1-10 µM
[11] = target: T1, Cholinesterase; assay: Binding affinity to BChE (unknown origin) in PBS assessed as fold change in fluorescence intensity at 710 nm by fluorescence spectra analysis
[12] = Toxicity in APP/PS1 transgenic AD mouse model assessed as effect on body weight administered intravenously once every 2 days for 10 times and measured on day 30; details: in vivo, iv, 720 h, time 30 day
[13] = Drug uptake in HEK293T cells transfected with BChE siRNA assessed as increase in fluorescence intensity by fluorescence based confocal laser scanning microscopic analysis; format: ADME, cell-based; details: human, hek-293t
[14] = Stability of compound in male ICR mouse brain at 100 uM, iv measured after 30 to 1440 mins by fluorescence microplate reader; format: ADME, organism-based; details: time 30-1440 min
[15] = target: Cholinesterase (Mus musculus) (UniProt Q03311); assay: Binding affinity to BChE in mouse HT-22 cells at 10 uM incubated for 1 hrs by fluorescence based confocal laser scanning microscopic analysis; format: cell-based
Sequence of Cholinesterase (Mus musculus) (Q03311 whole entry): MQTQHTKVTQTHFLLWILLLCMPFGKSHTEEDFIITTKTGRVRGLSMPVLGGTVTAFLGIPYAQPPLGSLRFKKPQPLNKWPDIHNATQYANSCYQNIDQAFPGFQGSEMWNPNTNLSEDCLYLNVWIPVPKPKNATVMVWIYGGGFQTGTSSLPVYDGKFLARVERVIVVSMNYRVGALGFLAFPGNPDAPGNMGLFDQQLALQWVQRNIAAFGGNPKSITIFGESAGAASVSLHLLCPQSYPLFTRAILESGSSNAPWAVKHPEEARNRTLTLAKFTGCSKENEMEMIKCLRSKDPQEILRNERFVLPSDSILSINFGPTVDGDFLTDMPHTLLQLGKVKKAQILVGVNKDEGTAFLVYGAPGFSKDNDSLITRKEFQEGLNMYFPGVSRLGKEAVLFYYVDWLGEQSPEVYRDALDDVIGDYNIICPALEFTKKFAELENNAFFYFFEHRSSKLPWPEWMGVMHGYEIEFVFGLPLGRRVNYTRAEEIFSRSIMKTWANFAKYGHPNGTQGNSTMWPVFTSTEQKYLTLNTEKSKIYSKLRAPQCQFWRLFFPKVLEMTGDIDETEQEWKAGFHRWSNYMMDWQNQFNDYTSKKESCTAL

[16] = Drug accumulation in brain of APP/PS1 transgenic AD-mouse model at 100 uM, iv measured at 5 to 60 mins by fluorescence imaging analysis; format: ADME, organism-based; details: in vivo, time 5-60 min
[17] = tested on: Mus musculus; assay: Antialzheimer activity in APP/PS1 transgenic AD mouse model assessed as improvement in NC scores administered intravenously once every 2 days for 10 times and measured on day 27 by Nest construction test; format: functional, organism-based; details: route iv, time 27.0 day
[18] = Selectivity ratio of fluorescence intensity for binding affinity to AChE (unknown origin) in PBS to fluorescence intensity for binding affinity to BChE (unknown origin) in PBS
[19] = target: T1, Cholinesterase; assay: Binding affinity to BChE (unknown origin) in PBS assessed as cyan coloured appearance of compound by UV/vis absorption analysis
[20] = target: T1, Cholinesterase; assay: Binding affinity to BChE (unknown origin) in PBS assessed as Michaelis-menten constant by fluorometric method
[21] = organism: Homo sapiens; assay: Binding affinity to carboxylesterase (unknown origin) by fluorescence analysis
[22] = Drug accumulation in brain of APP/PS1 transgenic AD-mouse model at 100 uM, iv measured after 24 hrs […] by fluorescence imaging analysis; format: ADME, organism-based; details: in vivo
[23] = Stability of compound at pH 12 measured within 3 mins by microplate reader analysis; format: physicochemical; details: buffer, pH 12, 0.05 h
[24] = tested on: PC-12; assay: Binding affinity to BChE in rat PC-12 cells assessed as increase in fluorescence intensity at 10 uM incubated for 24 hrs by fluorescence based confocal laser scanning microscopic analysis; format: cell-based
[25] = target: T1, Cholinesterase; assay: Binding affinity to BChE (unknown origin) assessed as enzyme mediated compound hydrolysis measured after 1 min by HPLC analysis relative to control; set-up: scale not given: the % may be the effect or the level left
[26] = target: T1, Cholinesterase; assay: Binding affinity to BChE in human LN-229 cells at 10 uM incubated for 1 hrs by fluorescence based confocal laser scanning microscopic analysis; format: cell-based
[27] = organism: Homo sapiens; assay: Binding affinity to lysozyme (unknown origin) by fluorescence analysis
[28] = tested on: PC-12; assay: Binding affinity to BChE in rat PC-12 cells at 10 uM incubated for 1 hrs by fluorescence based confocal laser scanning microscopic analysis; format: cell-based
[29] = tested on: Mus musculus; assay: Antialzheimer activity in APP/PS1 transgenic AD mouse model assessed as improvement in learning administered intravenously once every 2 days for 10 times and measured on day 26 by Y maze test; format: functional, organism-based; details: route iv, time 26.0 day
[30] = target: T1, Cholinesterase; assay: Binding affinity to BChE (unknown origin) in PBS assessed as […] at 680 nm by UV/vis absorption analysis
[31] = Permeability of compound incubated for 18 hrs by PAMPA-BBB based UV plate spectroscopic reader analysis; format: ADME; details: read-out: permeability
[32] = tested on: SH-SY5Y; assay: Neuroprotective activity against amyloid-beta (1 to 42)-induced cell death in human SH-SY5Y cells assessed as increase in cell survival at 10 to 50 uM preincubated with compound for 2 hrs followed by amyloid beta (1 to 42) addition and measured after 24 hrs by MTT assay; format: functional, cell-based; details: dose 10-50 µM, time 26.0 hrs
[33] = tested on: SH-SY5Y; assay: Neuroprotective activity against amyloid-beta (1 to 42)-induced human SH-SY5Y cells assessed as decrease in amyloid beta (1 to 42) level in culture medium at 10 to 20 uM incubated for 24 hrs by ELISA; format: functional, cell-based; details: dose 10-20 µM
[34] = target: T1, Cholinesterase; assay: Binding affinity to BChE in human SH-SY5Y cells at 10 uM incubated for 1 hrs by fluorescence based confocal laser scanning microscopic analysis; format: cell-based
[35] = tested on: Mus musculus; assay: Antialzheimer activity in APP/PS1 transgenic AD mouse model assessed as improvement in learning administered intravenously once every 2 days for 10 times followed by morris water maze training from day 21 to 25 and measured on day 26 by Morris water maze test; format: functional, organism-based; details: route iv, time 26.0 day
[36] = target: T1, Cholinesterase; assay: Binding affinity to BChE (unknown origin) assessed as enzyme mediated compound hydrolysis measured after 5 min by HPLC analysis relative to control; set-up: scale not given: the % may be the effect or the level left
[37] = Stability of compound in male ICR mouse plasma at 100 uM, iv measured after 30 mins by fluorescence microplate reader; format: ADME, organism-based; details: 0.5 h
[38] = tested on: Mus musculus; assay: Antialzheimer activity in APP/PS1 transgenic AD mouse model assessed as improvement in memory administered intravenously once every 2 days for 10 times followed by morris water maze training from day 21 to 25 and measured on day 26 by Morris water maze test; format: functional, organism-based; details: route iv, time 26.0 day
[39] = tested on: SH-SY5Y; assay: Neuroprotective activity against amyloid-beta (1 to 42)-induced human SH-SY5Y cells assessed as increase in ACh level in cell lysate at 10 to 20 uM incubated for 24 hrs by ELISA; format: functional, cell-based; details: dose 10-20 µM
[40] = target: T1, Cholinesterase; assay: Binding affinity to BChE (unknown origin) in PBS assessed as maximum initial reaction rate by fluorometric method
[41] = target: T1, Cholinesterase; assay: Binding affinity to BChE (unknown origin) in PBS assessed as maximum emission wavelength at 710 nm by fluorescence spectra analysis
[42] = organism: Homo sapiens; assay: Binding affinity to ALP (unknown origin) by fluorescence analysis
[43] = tested on: SH-SY5Y; assay: Neuroprotective activity against amyloid-beta (1 to 42)-induced human SH-SY5Y cells assessed as decrease in amyloid beta (1 to 42) level in cell lysate at 10 to 20 uM incubated for 24 hrs by ELISA; format: functional, cell-based; details: dose 10-20 µM
[44] = target: T2, Acetylcholinesterase; assay: Stability of compound assessed as human serum AChE-mediated compound hydrolysis by fluorescence based analysis; format: ADME
[45] = target: Cholinesterase (Equus caballus, UniProt P81908); assay: Stability of compound assessed as horse serum BChE-mediated compound hydrolysis by fluorescence based analysis; format: ADME
Sequence of Cholinesterase (Equus caballus, UniProt P81908) (P81908 whole entry): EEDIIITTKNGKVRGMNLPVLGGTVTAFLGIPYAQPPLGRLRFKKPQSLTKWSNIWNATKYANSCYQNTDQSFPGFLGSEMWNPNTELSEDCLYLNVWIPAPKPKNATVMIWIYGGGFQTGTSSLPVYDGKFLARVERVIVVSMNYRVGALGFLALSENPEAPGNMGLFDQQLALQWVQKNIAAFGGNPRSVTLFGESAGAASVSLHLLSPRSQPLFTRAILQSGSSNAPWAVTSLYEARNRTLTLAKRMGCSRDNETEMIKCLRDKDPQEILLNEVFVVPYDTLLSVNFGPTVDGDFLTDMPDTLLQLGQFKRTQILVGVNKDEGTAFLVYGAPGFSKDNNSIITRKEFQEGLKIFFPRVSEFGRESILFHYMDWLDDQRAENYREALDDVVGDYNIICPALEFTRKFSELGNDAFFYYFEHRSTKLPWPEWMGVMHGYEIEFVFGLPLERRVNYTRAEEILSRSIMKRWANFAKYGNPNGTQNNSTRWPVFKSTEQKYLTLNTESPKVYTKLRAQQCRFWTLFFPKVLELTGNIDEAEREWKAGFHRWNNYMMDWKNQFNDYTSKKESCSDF

## CCN(CC)Cc1ccccc1CNC(=O)c1cccc(NC(=O)c2ccc(F)cc2)c1
[1]
  Activity: Non-Toxic

## CCN(CC)Cc1ccccc1CNC(=O)c1cccc(NC(=O)c2cccc(C(=O)O)c2)c1
[2]
  IC50: 1.23 nM

## C#CCCC[N+]1=C(/C=C/C2=C3Oc4cc(OC(=O)C5CC5)ccc4C=C3CCC2)C(C)(C)c2ccccc21.[I-]
[3]
  Activity: inactive
[4]
  Stability: Stable
[5]
  Activity: inactive
[6]
  Activity: Active
[7]
  Activity: inactive
[8]
  Stability: Stable
[9]
  Activity: inactive
[10]
  Activity: Dose-Dependent Effect
[11]
  fold change (FC): 21
[12]
  Activity: Non-Toxic
[13]
  Drug uptake: Not Active
[14]
  Stability: Unstable
[15]
  Activity: Active
[16]
  Drug uptake: Active
[17]
  Activity: inactive
[18]
  Selectivity ratio: 31.4
[19]
  Activity: Active
[20]
  Activity: 9.07 µM
[21]
  Activity: inactive
[22]
  Drug uptake: Not Active
[23]
  Stability: Unstable
[24]
  Activity: Active
[1]
  Activity: Toxic
[25]
  Activity: 50%
[26]
  Activity: Active
[27]
  Activity: inactive
[28]
  Activity: Active
[29]
  Activity: inactive
[30]
  Activity: Active
[31]
  Papp at 18 h: 5.97 ×10⁻⁶ cm/s
[32]
  Activity: inactive
[33]
  Activity: inactive
[34]
  Activity: Active
[35]
  Activity: inactive
[36]
  Activity: > 90%
[37]
  Stability: Stable
[38]
  Activity: inactive
[39]
  Activity: inactive
[40]
  Activity: 2.08 µM/min
[41]
  Activity: Active
[42]
  Activity: inactive
[2]
  IC50: > 100000 nM
[43]
  Activity: inactive

## Nc1c2c(nc3ccccc13)CCCC2 [TACRINE]
[1]
  Activity: Non-Toxic

## C#CCCC[N+]1=C(/C=C/C2=C3Oc4cc(OC(C)=O)ccc4C=C3CCC2)C(C)(C)c2ccccc21.[I-]
[44]
  Stability: Unstable
[45]
  Stability: Unstable
